From ChEMBL document CHEMBL5137032, “Design, synthesis of DNA-interactive 4-thiazolidinone-based indolo-/pyrroloazepinone conjugates as potential cytotoxic and topoisomerase I inhibitors” (Eur J Med Chem, 2022)
Calls of active or inactive are those of the source. No cut-off for these calls is given here.

Tests used:
Type in all cases: functional, cell-based
SK-MEL-28 [1] = experiment: Induction of intracellular ROS generation in human SK-MEL-28 cells at 2.26 uM incubated for 48 hrs by […] fluorescence microscopic analysis
A549 [2] = experiment: Induction of intracellular ROS generation in human A549 cells at […] incubated for 48 hrs by […] fluorescence microscopic analysis; conditions: dose 0.47 µM
SK-MEL-28 [3] = experiment: Cytotoxicity against human SK-MEL-28 cells assessed as cell growth inhibition incubated for 48 hrs by MTT assay; conditions: SK-MEL-28, 48 h
A549 [4] = experiment: Cytotoxicity against human A549 cells assessed as cell growth inhibition incubated for 48 hrs by MTT assay; conditions: A549, 48 h
MCF7 = experiment: Cytotoxicity against human MCF7 cells assessed as cell growth inhibition incubated for 48 hrs by MTT assay; conditions: MCF7, 48 h
HCT-116 = experiment: Cytotoxicity against human HCT-116 cells assessed as cell growth inhibition incubated for 48 hrs by MTT assay; conditions: HCT-116, 48 h
HT-29 = experiment: Cytotoxicity against human HT-29 cells assessed as cell growth inhibition incubated for 48 hrs by MTT assay; conditions: HT-29, 48 h

| SMILES | Activity (SK-MEL-28 [1]) | Activity (A549 [2]) | IC50 (SK-MEL-28 [3]) | IC50 (A549 [4]) | IC50 (MCF7) | IC50 (HCT-116) | IC50 (HT-29) |
| --- | --- | --- | --- | --- | --- | --- | --- |
| CC[C@@]1(O)C(=O)OCc2c1cc1n(c2=O)Cc2cc3ccccc3nc2-1 [CAMPTOTHECIN] | Active | Active | 2.26 µM | 0.47 µM | – | – | – |
| O=C1N/C(=N\Cc2ccc3c(c2)OCO3)S/C1=C1/CCNC(=O)c2[nH]c3ccccc3c21 | – | – | > 50 µM | > 50 µM | 31.4 µM | 21.4 µM | 36.5 µM |
| O=C1N/C(=N\Cc2ccc(Cl)cc2)S/C1=C1/CCNC(=O)c2[nH]c3ccccc3c21 | – | – | > 50 µM | 33.6 µM | 46.8 µM | 22.7 µM | 39.9 µM |
| COc1ccc(C/N=C2\NC(=O)/C(=C3\CCNC(=O)c4[nH]c5ccccc5c43)S2)cc1OC | – | – | 25.1 µM | 30 µM | 23.7 µM | 16.4 µM | > 50 µM |
| O=C1N/C(=N\Cc2ccc(F)cc2)S/C1=C1/CCNC(=O)c2[nH]ccc21 | – | – | 11.2 µM | 22.4 µM | 43.1 µM | 16.9 µM | 26 µM |
| Cn1c2c(c3ccccc31)/C(=C1\S/C(=N/Cc3ccccc3)NC1=O)CCNC2=O | – | – | > 50 µM | > 50 µM | > 50 µM | > 50 µM | > 50 µM |
